Patent US10596145B2, “Heterocyclic flavone derivatives, compositions, and methods related thereto” (Emory University, priority 2012, dated 2020)
“Also recorded” adds a separate entry of the source. Each block holds one compound with its values, some of them ahead of it.

Assays:
TrkB [1] = target: T1, TrkB (Rattus norvegicus, UniProt Q63604); test: TrkB activation in primary cortical neurons (immunoblotting); assay type: cell-based; conditions: 500 nM, 15 min
T1 construct: endogenous in cells; host or cells: primary cortical neurons from E17 rat embryos
Method: Primary cortical cultures from E17 rat embryos were treated with 500 nM of various synthetic flavone derivatives for 15 min. The cell lysates (20 μg) were analyzed by the immunoblotting.
Rat primary neurons were treated with 500 nM various indicated compounds from 15 min. The neuronal lysates ([…]) were analyzed with various antibodies.
500 nM of different synthetic compounds were added to DIV 7 neurons for 15 min. The cell lysates were analyzed by immunoblotting with indicated p-Akt 473 antibodies.
Replacing the 3′-dimethylamino group or 4′-morpholino group was tested for TrkB agonistic activity. To compare the TrkB activation by these compounds, primary cortical cultures were prepared and treated them with 500 nM of various compounds for 15 min and collected the cell lysates. […] The p-Akt ELISA analysis results were similar to the TrkB activation pattern (FIG. 2B, lower panel).

[2] = In vivo metabolism studies of 7,8-DHF
Excerpt: Among the modifications, glucuronidation and sulfation are thought to be responsible for the in vivo metabolism of the flavonoids. In addition, the O-methylated metabolites were detected in both the plasma and brain samples after oral administration. These modification pathways may explain the relatively short half-life of 7,8-DHF. Alteration of this labile group into the bioisosteric imidazole derivative escalates the PK profiles in compound o.

[3] = Reactive metabolic screening assay; assay type: in vitro ADME; conditions: liver microsomal lysates
Excerpt: (§1) To explore these compounds' in vitro ADMET profiles, we conducted numerous in vitro assays.

C57BL/6J mice [4] = test: Locomotor activity assay; assay type: in vivo, mouse; conditions: 2.5 mg/kg oral, 3 weeks
Method: The above drug-treated mice were subjected locomotor activity at day 22. […] Data are presented as mean±SEM.
Locomotor activity was assessed using an automated system (San Diego Instruments, La Jolla, Calif., USA) with photobeams that recorded ambulations (consecutive beam breaks). Drug-treated mice were placed in the locomotor chambers, and their activity was recorded for 2 h with 30 min interval.

[5] = Human liver microsomal stability assay; assay type: in vitro ADME; conditions: human liver microsomes, 1 h incubation
Excerpt: as §1

HepG2 cells = test: In vitro cytotoxicity assay with HepG2 cells; assay type: cell-based; conditions: micronucleus and comet assays
Method: HepG2 cells were treated with various concentrations of flavonoids for 24 h. The drug-treated cells were subjected to trypan blue exclusive assay. Data are presented as mean±SEM. (n=3, ***P<0.0001 vs vehicle).
In vitro and in vivo ADMET (ADME plus toxicity) of certain compounds were examined. […] Micronuclei formation is an important endpoint in genotoxicity study. […] Next, a Comet assay was performed with 100 μM drug-treated HepG2 cells. As a positive control, etoposide, a topoisomerase inhibitor, which causes DNA strand breaks was used.

Akt = test: Downstream Akt activation in mouse brain (p-Akt immunoblotting, p-Akt 473 ELISA); assay type: in vivo
Method: PathScan Phospho-Akt1 (Ser473) Sandwich ELISA kit was purchased from Cell Signaling (Cat. #7160). 100 μl sample in sample diluent (supplied in the kit) was added to each well and incubated overnight at 4° C. After 4× wash with 200 ul wash buffer (supplied in the kit), 100 ul/well detection antibody was added and incubated for 1 hour at 37° C. After 4× wash, 100 μl of HRP-linked secondary antibody (supplied in the kit) was added and incubated for 30 minutes at 37° C. After a final wash, 100 μl of TMB substrate was added to each well and incubated for 10 minutes at 37° C. The reaction was stopped by adding 100 μl/well stop solution. Record the values of each well using microplate reader at 450 nm and 650 nm. The optical density was determined by the subtraction of the reading at 650 nm from the reading s at 450 nm.
(§2) Male C57BL/6 mice aged of two months were administrated orally with 4′-DMA-7,8-DHF derivatives at a single dose of 1 mg/kg for 4 h. The control mice were injected with saline. The mice were sacrificed and brains were homogenated and ultracentrafuged. The supernatant (40 μg) was employed for SDS-PAGE and immunoblotting analysis with indicated antibodies, respectively. Male C57BL/6 mice aged of two months were administrated orally with compound (i) or (m) at the dose of 5 mg/kg/day each and compound o or p at the dose of 2.5 mg/kg/day each for 21 days. BrdU (100 mg/kg) was i. p. injected two hours before the TrkB agonist treated animals were sacrificed and the hippocampal section lysates were analyzed by immunoblotting with p-TrkB and total TrkB antibodies, p-AKT ELISA.

CYP1A2 = target: T2, CYP1A2 (Homo sapiens, UniProt P05177); test: CYP screen inhibition; assay type: in vitro ADME; conditions: at 3 μM
T2 sequence (P05177 1-516): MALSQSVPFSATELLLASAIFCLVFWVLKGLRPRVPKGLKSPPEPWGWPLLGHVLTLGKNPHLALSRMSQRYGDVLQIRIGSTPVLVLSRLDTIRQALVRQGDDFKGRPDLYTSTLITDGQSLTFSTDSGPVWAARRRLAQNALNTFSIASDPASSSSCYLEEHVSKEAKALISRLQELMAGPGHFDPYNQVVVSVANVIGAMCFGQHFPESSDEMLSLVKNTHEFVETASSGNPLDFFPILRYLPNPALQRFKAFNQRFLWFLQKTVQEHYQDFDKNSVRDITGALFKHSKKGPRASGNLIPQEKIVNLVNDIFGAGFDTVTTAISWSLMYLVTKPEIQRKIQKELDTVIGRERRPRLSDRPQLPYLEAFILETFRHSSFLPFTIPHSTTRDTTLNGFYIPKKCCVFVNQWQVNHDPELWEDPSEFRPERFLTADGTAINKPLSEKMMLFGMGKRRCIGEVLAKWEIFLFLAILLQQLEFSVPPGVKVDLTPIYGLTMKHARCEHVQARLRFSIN
Method: At 30 μM, the inhibition patterns contained similar trends. To test the possible cardiovascular toxicity, hERG inhibition triggered by compound o was examined.

C57BL/6J mice [6] = test: Forced swim test; assay type: in vivo, mouse; conditions: 2.5 mg/kg oral, 21 days
Method: Male C57BL/6J mice (6 mice/group) were orally administrated by gavage with 5 mg/kg compound (m) or compound (i) and vehicle solvent saline for 21 days and subjected to a forced swim test (6 min, immobility recorded in the last 4 min). Data are presented as mean±SEM. (n=6, ***P<0.0001 vs vehicle, Student t-test).
Forced swim test. Male C57BL/6J mice (8 mice/group) were orally administrated by gavage with 2.5 mg/kg compound o or compound p and vehicle solvent saline for 21 days and subjected to a forced swim test (6 min, immobility recorded in the last 4 min). […] Data are presented as mean±SEM.
Adult male mice (2-3 months old) were randomly submitted to a forced swim test without a preswim. Test compounds were orally administrated by gavage for 21 days. The mice were allowed to adapt to the test room for 2 days. The mice were placed in a clear glass cylinder with a diameter of 16 cm, half-filled with clear water at 24° C.

TrkB [7] = target: T3, TrkB (Mus musculus, UniProt P15209); test: TrkB phosphorylation in mouse brain after oral administration (immunoblotting, immunohistochemistry); assay type: in vivo
T3 construct: from tissue; host or cells: mouse brain (hippocampus, cortex), C57BL/6
Method: One mg/kg of various indicated compounds were orally administrated into C57 BL/6J mice and TrkB phosphorylation and its downstream signaling cascades including Akt and MAPK in the hippocampus of mouse brain were analyzed by immunoblotting at 4 h. […] The downstream p-Akt and p-MAPK activity coupled to the TrkB activation patterns.
Time course assay with 4′-dimethylamino-7,8-imidazole flavone. One mg/kg of compound (i) and compound (m) were orally administrated into C57 BL/6J mice and TrkB phosphorylation and its downstream signaling cascades including Akt in mouse brain were analyzed by immunoblotting at various time points. TrkB activation by compound m peaked at 4 h, whereas the maximal TrkB activation by compound i in mouse brain occurred at 1-2 h. Arrows indicate the p-TrkB in mature glycosylated or unglycosylated forms (top panels). The downstream Akt activation pattern tightly correlated with the upstream TrkB activation.
as §2
Brain tissues were fixed in 4% paraformaldehyde overnight followed by paraffin embedding. Sections of 6 μm were cut. For immunohistochemical staining, brain sections were deparaffinized in xylene and rehydrated in graded alcohols. Endogenous peroxidase activity was blocked by 3% hydrogen peroxide for 5 min and all slides were boiled in 10 mM sodium citrate buffer (pH 6.0) for 10 min. Phosphorylated TrkB 816 and TrkB were detected using specific antibodies. Paraffin section were deparaffinized in xylene and rehydrated gradient ethanol solution. Samples were boiled in 10 mM sodium citrate buffer for 20 min for antigen retrieval purpose. Brain sections were incubated with anti-TrkB (BD Biosciences, San Jose, Calif.) 1:50, p-TrkB 1:300 dilution. Secondary antibody was applied using anti-rabbit-Alexa 594 (red), anti-mouse-fluorescein isothiocyanate (FITC) (green). DAPI (blue) was used for nuclear staining.

[8] = In vivo pharmacokinetic studies in mice; set-up: species or system mouse; conditions: mice
Method: For compound a, the standard dosage of 1 mg/kg via i.v. injection and 5 mg/kg for P.O. route was employed. […] Presumably, the dosage is too low for the in vivo PK assay. Thus, the doses of the tested compound o were increased. […] Moreover, the bioavailability is around 2% for compound o at a 10 mg/kg dosage.
Twenty to thirty grams mice within the age of 6-8 weeks old were administrated with the indicated compounds i. v. or orally. At different time points (3, 10, 30, 60, 120, 240, 360 and 480 min), blood aliquots (300-400 μl) were collected in tubes coated with lithium heparin, mixed gently, then kept on ice and centrifuged at 2500×g for 15 min at 4° C., within 1 h of collection. The plasma was then harvested and kept frozen at −20° C. until further processing. For each time point, 3 mice/group were employed. The plasma samples were analyzed by HPLC.

[9] = Metabolite investigation of the methylated metabolites of 7,8-DHF
Method: In order to increase the hydrophobicity, EU-B-related compounds were prepared by keeping the urea functional group. In metabolite investigation of the methylated metabolites of 7,8-DHF, it was discovered that that 7-methoxy-8-hydroxy metabolite is active. A methyl group was added on the urea group.

T3 sequence (P15209 32-821): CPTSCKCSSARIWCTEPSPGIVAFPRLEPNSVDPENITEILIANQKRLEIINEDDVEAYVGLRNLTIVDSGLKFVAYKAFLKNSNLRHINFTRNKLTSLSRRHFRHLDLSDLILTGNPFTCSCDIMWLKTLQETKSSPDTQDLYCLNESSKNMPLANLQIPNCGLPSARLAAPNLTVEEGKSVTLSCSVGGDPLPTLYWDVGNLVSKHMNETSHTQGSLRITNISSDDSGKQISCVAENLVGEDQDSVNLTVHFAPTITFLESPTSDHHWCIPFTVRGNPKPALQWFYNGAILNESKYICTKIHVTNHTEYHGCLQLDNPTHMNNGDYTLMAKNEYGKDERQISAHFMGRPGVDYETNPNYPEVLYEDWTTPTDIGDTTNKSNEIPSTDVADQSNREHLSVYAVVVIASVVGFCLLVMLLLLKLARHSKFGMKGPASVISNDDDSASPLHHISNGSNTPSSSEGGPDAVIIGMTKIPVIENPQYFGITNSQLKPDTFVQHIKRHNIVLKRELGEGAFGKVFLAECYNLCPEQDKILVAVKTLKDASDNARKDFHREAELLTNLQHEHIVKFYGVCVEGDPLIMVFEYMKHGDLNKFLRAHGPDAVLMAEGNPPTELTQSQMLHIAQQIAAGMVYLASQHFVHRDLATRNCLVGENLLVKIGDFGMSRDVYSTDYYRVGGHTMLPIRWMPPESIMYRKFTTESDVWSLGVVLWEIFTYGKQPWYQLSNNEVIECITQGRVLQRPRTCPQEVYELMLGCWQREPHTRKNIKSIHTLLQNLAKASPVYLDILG
T1 sequence (Q63604 32-821): as the sequence (P15209 32-821) above, with T3M, S9T, A10T, V32I, R63K, S84G, M153T, L185I, S394T, S770N counted along it

TrkB activation (p-TrkB immunoblotting) (TrkB [1]): comparable activity as compound a
SMILES: CN(C)c1cccc(-c2cc(=O)c3ccc(O)c(O)c3o2)c1 [3′-dimethylamino-7,8-DHF]

SMILES: O=c1cc(-c2ccccc2)oc2c(O)c(O)ccc12 [7,8-DHF, 7,8-dihdyroxyflavone]
in vivo metabolic modifications [2]: subjected to oxidation, glucuronidation, sulfation and methylation

SMILES: O=c1cc(-c2ccc(N3CCCC3)cc2)oc2c1ccc1cc[nH]c12 [compound p, 2-(4-(pyrrolidin-1-yl)phenyl)pyrano[3,2-g]indol-4(9H)-one]
TrkB activation (p-TrkB immunoblotting) (TrkB [1]): higher activity than compound m
reactive metabolite / adduct formation [3]: formed numerous adducts
locomotor activity (C57BL/6J mice [4]): neither compound o nor p altered the motion activity
remaining unchanged after incubation [5]: 1.2%
cytotoxicity or genotoxicity (overall conclusion) (HepG2 cells): negligible cytotoxicity or genotoxicity
Akt activation (quantitative p-Akt ELISA) (Akt; 2.5 mg/kg/day oral, 3 weeks): notably activated Akt
CYP1A2 inhibition (CYP1A2): 37.4%
immobility in forced swim test (C57BL/6J mice [6]): but not compound p significantly decreased the immobility
TrkB phosphorylation after chronic treatment (immunoblotting) (TrkB [7]; 2.5 mg/kg/day oral, 21 days): markedly activated TrkB receptor; also recorded: evidently elevated TrkB phosphorylation
TrkB phosphorylation in hippocampus (immunohistochemistry, anti-p-TrkB 816) (TrkB [7]; 2.5 mg/kg/day oral, chronic): elevated TrkB phosphorylation in hippocampus

SMILES: O=c1cc(-c2ccc(N3CCCC3)cc2)oc2c1ccc1nc[nH]c12 [compound n, 8-(4′-(pyrrolidino-)phenyl)chromeno[7,8-d]imidazol-6(1H)-one]
cytotoxicity or genotoxicity (overall conclusion) (HepG2 cells): negligible cytotoxicity or genotoxicity

AUClast ([8]; 1 mg/kg i.v.): about 5930 min*ng/ml
in vivo half-life, t1/2 ([8]; 1 mg/kg i.v.): around 9 min
bioavailability ([8]; 5 mg/kg P.O.): not measurable
SMILES: CN(C)c1ccc(-c2cc(=O)c3ccc(O)c(O)c3o2)cc1 [compound a, 4′-DMA-7,8-DHF, reference compound]
downstream p-Akt and p-MAPK signalings (Akt; 1 mg/kg oral, at 4 h): strongly activated
TrkB activation in mouse brain (TrkB [7]; 1 mg/kg oral, hippocampus, at 4 h): activated the TrkB receptor; also recorded: strongest TrkB stimulatory effect

TrkB activation (p-TrkB immunoblotting) (TrkB [1]): comparable activity as compound a
SMILES: O=c1cc(-c2ccc(N3CCOCC3)cc2)oc2c(O)c(O)ccc12 [4′-morpholino-7,8-DHF]

SMILES: COc1ccc2c(=O)cc(-c3ccccc3)oc2c1O [7-methoxy-8-hydroxy metabolite]
activity of methylated metabolite [9]: is active
